Data as given in patent publication US5135955A, “Propanamine derivatives” (Eli Lilly and Company, priority 1989, dated 1992).
Where a name gives a salt, the structure may show the parent alone.

Experiments:
Candida albicans A26 = experiment: in vitro antifungal activity, Candida albicans (MIC); format: cell-based; conditions: 35° C., 48 hours, RPMI 1640 plus 10% fetal calf serum, 95-100% inhibition of growth, read-out: minimum inhibitory concentration (MIC), C.a.
Protocol: (§1) The antifungal activity was assayed in vitro against Candida abicans A26, Trichophyton mentagrophytes CDC27, and Aspergillus flavus M152. The inocula, previously frozen under liquid nitrogen in a lactose, glycerol and water solution, were standardized by counting spores with a hemocytometer. Final concentrations (C. albicans, 1×10^5 cells/m; T. mentagrophytes, 1×10^6 cells/ml; A. flavus, 1×10^5 cells/ml) in RPMI 1640 plus 10% fetal calf serum were added to each of the 96 wells of a microtiter plate (100 μl/well).The compounds to be tested were solubilized in either water or ethanol and added to the microtiter wells in serial dilutions to give final concentrations in the range 0.039-20 μg/ml. The plates were incubated at 35° C. for 48 hours. The minimum inhibitory concentration (MIC) values were determined as the highest dilution showing 95-100% inhibition of growth.
(§2) ^a Minimum inhibitory concentration expressed in μg/ml
^b C.a. means Candida albicans A26

[1] = tested on: Trichophyton mentagrophytes CDC27; experiment: in vitro antifungal activity, Trichophyton mentagrophytes (MIC); format: cell-based; conditions: 35° C., 48 hours, RPMI 1640 plus 10% fetal calf serum, 95-100% inhibition of growth, read-out: minimum inhibitory concentration (MIC), T.m.
Protocol: as §1, §2
^d T.m. means Trichophyton mentagrophytes CDC27

Aspergillus flavus M152 = experiment: in vitro antifungal activity, Aspergillus flavus (MIC); format: cell-based; conditions: 35° C., 48 hours, RPMI 1640 plus 10% fetal calf serum, 95-100% inhibition of growth, read-out: minimum inhibitory concentration (MIC), A.f.
Protocol: as §1, §2
^c A.f. means Aspergillus flavus M152

[2] = tested on: thromboplastin clotting time in human plasma; experiment: prothrombin time test (thromboplastin clotting time in human plasma); format: biochemical; conditions: 37° C., human plasma
Protocol: Briefly, to 0.1 ml of each of human plasma, normal saline and thromboplastin was added 0.03 ml of the test compound of the present invention (2 mg/ml in 50 percent methanol). The clotting time was measured at 37° C. with a Fibrometer.
^a Expressed in seconds
^b Concentration of compound tested in micrograms per milliliter of […]

solubility in methanol = format: physicochemical
[3] = 22 micrograms per milliliter of plasma
[4] = 45 micrograms per milliliter of plasma
[5] = 90 micrograms per milliliter of plasma
[6] = 180 micrograms per milliliter of plasma

SMILES | MIC (Candida albicans A26) [µg/mL] | MIC [1] [µg/mL] | MIC (Aspergillus flavus M152) [µg/mL] | plasma prothrombin time [2, 3] [s] | plasma prothrombin time [2, 4] [s] | plasma prothrombin time [2, 5] [s] | plasma prothrombin time [2, 6] [s] | solubility in methanol (solubility in methanol)
CCCCCCCCOc1ccc(CC(CN)c2ccccc2)cc1 (stereo not drawn) [Example 2, 4-(Octyloxy)-β-phenylbenzenepropanamine] | 20 | 20 | 10 | 38 | 79 | > 300 | > 300 | 
CCCCCOc1ccc(CC(CN)c2ccccc2)cc1.Cl (stereo not drawn) [Example 4, 4-(Pentyloxy)-β-phenylbenzenepropanamine hydrochloride] | 10 | 5 | 5 |  | 37 | 91 | > 300 | 
CCCCOc1ccc(CC(CN)c2ccccc2)cc1.Cl (stereo not drawn) [Example 6, 4-(Butyloxy)-β-phenylbenzenepropanamine hydrochloride] | 10 | 5 | 5 | 20 | 26 | 46 | 83 | 
CCCCCCOc1ccc(CC(CN)c2ccc(OC)c(OC)c2)cc1 (stereo not drawn) [Example 16, .varies.-(Hexyloxy)-β-(3,4-dimethoxy)phenylbenzenepropanamine hydrochloride] | 20 | 10 | 10 | 27 | 57 | 81 | 235 | 
CCCCCCCOc1ccc(CC(CN)c2ccc(OC)cc2)cc1 (stereo not drawn) [Example 21, 4-(Heptyloxy)-β-(4-methoxy)phenylbenzenepropanamine] |  |  |  |  |  |  |  | insoluble
Cl.NCC(Cc1cccc2ccccc12)c1ccccc1 (stereo not drawn) [Example 22, β-Phenyl-1-naphthalenepropanamine hydrochloride] | 20 | 10 | 10 |  |  |  | > 300 | 
CCCCCCOc1ccc(CC(CN)c2ccc(F)cc2)cc1 (stereo not drawn) [Example 26, 4(Hexyloxy)-β-(4-fluorophenyl)benzenepropanamine] | 10 | 10 | 5 |  | 29 | 67 | 500 | 
CC(CCc1ccc(OCCC2CCCCC2)cc1)NC1CCCC(C(F)(F)F)C1 (stereo not drawn) [Example 39, 4-(2-Cyclohexylethoxy)-α-methyl-N-[3-(trifluoromethyl)-cyclohexyl]benzenepropanamine hydrochloride] | 5 | > 20 | > 20 |  | 90 |  |  | 
CCCCOc1ccc(CCC(C)N(C)C)cc1 (stereo not drawn) [Example 41, 4-Butoxy-N,N,α-trimethylbenzenepropanamine hydrochloride] | 0.156 | 0.078 | 1.25 |  | 21 | 24 | 41 | 
